The source made the active and inactive calls.
Legend:
[1] = Fluorescence-based cell-based high throughput dose response assay for inhibitors of the interaction of nucleotide-binding oligomerization domain containing 2 (NOD2) and the receptor-interacting serine-threonine kinase 2 (RIPK2).; type: functional; conditions: Homo sapiens
[2] = Trypanosoma cruzi growth suppression in host cells – NIH3T3 host cells, beta-gal luminescence, confirmation (AID 2044); type: functional, cell-based;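 also: intracellular parasites grown in NIH/3T3 mouse fibroblasts as host cells; luminescent beta-galactosidase reporter signal from transgenic T. cruzi replicating inside host cells; inhibitors lower the luminescence signal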
Beta Lactamase [3] = biological target: T1, Beta Lactamase (Pseudomonas aeruginosa, UniProt Q932Y6); assay: BLA reporter interference, concentration series – BLA reporter cells, FRET fluorescence, artefact control for NOD2-RIPK2 interaction inhibitor project, dose response (AID 651552); type: functional, cell-based
T1 sequence (Q932Y6 whole entry): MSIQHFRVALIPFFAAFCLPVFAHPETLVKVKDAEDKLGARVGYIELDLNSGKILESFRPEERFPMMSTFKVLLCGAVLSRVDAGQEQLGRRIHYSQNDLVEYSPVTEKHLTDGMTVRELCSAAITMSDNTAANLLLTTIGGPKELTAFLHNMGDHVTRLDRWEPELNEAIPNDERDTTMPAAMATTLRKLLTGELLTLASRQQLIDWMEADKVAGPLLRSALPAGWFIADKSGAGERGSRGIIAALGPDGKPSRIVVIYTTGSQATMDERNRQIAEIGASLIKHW

[4] = NIH3T3 cell viability loss – ATP luminescence, mouse fibroblasts, counter-screen, dose response (AID 2010); type: functional, cell-based;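 also: cells exposed to compound for about 90 hours before reading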
Paired box protein Pax-8 = Paired box protein Pax-8 (Homo sapiens, UniProt Q06710); assay: PAX8 transcriptional activity inhibition in RMG-I – RMG-I cells, luciferase, cherry-pick, dose response (AID 687027); type: functional, cell-based;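 also: luciferase reporter driven by Pax8 target thyroperoxidase promoter measured by SteadyGlo luminescence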
Paired box protein Pax-8, sequence (Q06710 whole entry): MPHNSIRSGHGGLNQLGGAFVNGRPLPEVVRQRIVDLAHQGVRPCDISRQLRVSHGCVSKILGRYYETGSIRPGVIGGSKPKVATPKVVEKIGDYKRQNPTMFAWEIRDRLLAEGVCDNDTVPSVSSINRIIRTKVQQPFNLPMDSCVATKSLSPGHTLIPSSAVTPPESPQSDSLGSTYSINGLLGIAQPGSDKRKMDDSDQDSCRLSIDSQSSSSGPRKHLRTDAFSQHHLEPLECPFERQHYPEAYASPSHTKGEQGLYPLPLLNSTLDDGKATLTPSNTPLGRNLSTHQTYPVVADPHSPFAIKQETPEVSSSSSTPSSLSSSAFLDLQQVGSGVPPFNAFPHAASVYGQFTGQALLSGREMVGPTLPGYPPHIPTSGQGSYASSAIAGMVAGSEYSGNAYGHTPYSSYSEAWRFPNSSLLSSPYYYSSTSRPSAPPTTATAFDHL

[5] = biological target: 26S proteasome non-ATPase regulatory subunit 14 (Homo sapiens, UniProt O00487); assay: inhibition of proteasome subunit RPN11 – biochemical, fluorescence polarization, uHTS hits, confirmation (AID 602368); type: functional
26S proteasome non-ATPase regulatory subunit 14, sequence (O00487 whole entry): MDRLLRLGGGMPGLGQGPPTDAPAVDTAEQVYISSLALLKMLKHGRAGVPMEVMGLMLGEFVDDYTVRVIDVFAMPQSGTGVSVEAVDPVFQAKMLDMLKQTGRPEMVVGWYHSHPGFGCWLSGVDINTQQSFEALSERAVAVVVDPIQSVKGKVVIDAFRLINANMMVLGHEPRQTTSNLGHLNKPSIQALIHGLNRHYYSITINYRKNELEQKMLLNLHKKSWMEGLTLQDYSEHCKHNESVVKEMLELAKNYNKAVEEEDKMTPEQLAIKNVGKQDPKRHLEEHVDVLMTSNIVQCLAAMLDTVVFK

[6] = biological target: 72 kDa type IV collagenase (Homo sapiens, UniProt P08253); assay: Dose Response validation of uHTS RPN11 inhibitor hits using a MMP-2 Fluorescence assay.; type: functional
72 kDa type IV collagenase, sequence (P08253 whole entry): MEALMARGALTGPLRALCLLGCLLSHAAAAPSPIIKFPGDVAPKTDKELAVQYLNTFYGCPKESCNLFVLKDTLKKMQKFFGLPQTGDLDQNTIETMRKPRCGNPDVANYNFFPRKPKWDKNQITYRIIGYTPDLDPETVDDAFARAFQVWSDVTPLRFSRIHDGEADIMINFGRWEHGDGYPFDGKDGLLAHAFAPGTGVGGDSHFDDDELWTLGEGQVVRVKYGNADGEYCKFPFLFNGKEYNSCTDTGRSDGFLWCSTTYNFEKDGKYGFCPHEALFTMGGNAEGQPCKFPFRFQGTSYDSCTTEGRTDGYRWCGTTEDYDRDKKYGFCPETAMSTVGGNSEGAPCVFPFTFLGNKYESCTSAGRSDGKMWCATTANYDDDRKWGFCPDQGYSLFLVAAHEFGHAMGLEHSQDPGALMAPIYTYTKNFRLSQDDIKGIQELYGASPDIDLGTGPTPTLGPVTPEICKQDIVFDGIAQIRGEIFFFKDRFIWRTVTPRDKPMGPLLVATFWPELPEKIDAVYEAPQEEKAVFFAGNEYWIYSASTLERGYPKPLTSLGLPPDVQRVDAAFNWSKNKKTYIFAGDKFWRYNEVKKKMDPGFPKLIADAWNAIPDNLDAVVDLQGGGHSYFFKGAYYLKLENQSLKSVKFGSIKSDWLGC

Prothrombin = Prothrombin (Bos taurus, UniProt P00735); assay: thrombin protease inhibitors – biochemical, fluorescence polarization, uHTS hits, dose response (AID 602369); type: functional
Escherichia coli = assay: microbe, parasite or virus in culture
[7] = biological target: T2, Carboxy-terminal domain RNA polymerase II polypeptide A small phosphatase 1 (Homo sapiens, UniProt Q9GZU7); assay: CTDSP1 inhibitors, concentration-response, biochemical, absorbance readout, ultra-high-throughput screen actives (AID 540297); type: functional
T2 sequence (Q9GZU7 whole entry): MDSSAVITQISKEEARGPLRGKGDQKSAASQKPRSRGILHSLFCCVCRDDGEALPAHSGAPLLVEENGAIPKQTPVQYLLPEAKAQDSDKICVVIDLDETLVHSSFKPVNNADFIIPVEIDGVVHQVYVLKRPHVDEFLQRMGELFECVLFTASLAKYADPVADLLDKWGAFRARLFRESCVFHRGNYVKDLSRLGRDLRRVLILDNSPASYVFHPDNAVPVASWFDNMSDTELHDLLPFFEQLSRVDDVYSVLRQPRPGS

[8] = biological target: 5-hydroxytryptamine receptor 5A (Homo sapiens, UniProt P47898); assay: Counterscreen for agonists of OPRM1-OPRD1 heterodimerization: luminescence-based cell-based high throughput dose response assay to identify agonists of 5-hydroxytryptamine (serotonin) 5A receptor (HTR5A). [Related pubchem assays (depositor defined):AID504326, AID504355, AID504692, AID504904, AID504905]; type: functional
5-hydroxytryptamine receptor 5A, sequence (P47898 whole entry): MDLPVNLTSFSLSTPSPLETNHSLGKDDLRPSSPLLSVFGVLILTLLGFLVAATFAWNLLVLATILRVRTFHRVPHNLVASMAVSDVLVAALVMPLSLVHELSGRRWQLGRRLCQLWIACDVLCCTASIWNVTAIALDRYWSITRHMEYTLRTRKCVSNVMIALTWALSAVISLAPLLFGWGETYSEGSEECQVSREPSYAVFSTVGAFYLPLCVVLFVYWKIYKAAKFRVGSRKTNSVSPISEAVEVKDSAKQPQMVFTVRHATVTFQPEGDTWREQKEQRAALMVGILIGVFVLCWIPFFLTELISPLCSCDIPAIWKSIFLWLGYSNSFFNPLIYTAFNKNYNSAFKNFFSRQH

[9] = biological target: Delta-type opioid receptor (Homo sapiens, UniProt P41143); assay: Counterscreen for agonists of heterodimerization of the mu 1 (OPRM1) and delta 1 (OPRD1) opioid receptors: Luminescence-based cell-based high throughput dose response assay to identify agonists of OPRD1 homodimerization. [Related pubchem assays (depositor defined):AID504326, AID504355, AID504692, AID504904, AID504905]; type: functional
Delta-type opioid receptor, sequence (P41143 whole entry): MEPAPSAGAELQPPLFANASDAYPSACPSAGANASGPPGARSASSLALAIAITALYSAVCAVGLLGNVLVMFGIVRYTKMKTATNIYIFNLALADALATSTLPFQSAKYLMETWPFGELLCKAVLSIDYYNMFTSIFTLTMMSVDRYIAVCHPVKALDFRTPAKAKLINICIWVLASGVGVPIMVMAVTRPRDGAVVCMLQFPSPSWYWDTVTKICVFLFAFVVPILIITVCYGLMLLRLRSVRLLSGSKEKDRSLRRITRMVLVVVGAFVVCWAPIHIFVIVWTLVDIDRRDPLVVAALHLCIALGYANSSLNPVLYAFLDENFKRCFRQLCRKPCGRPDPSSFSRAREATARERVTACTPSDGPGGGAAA

Mu-type opioid receptor = Mu-type opioid receptor (Homo sapiens, UniProt P35372); assay: Counterscreen for agonists of heterodimerization of the mu 1 (OPRM1) and delta 1 (OPRD1) opioid receptors: Luminescence-based cell-based high throughput dose response assay to identify agonists of OPRM1 homodimerization.; type: functional;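 also: U2OS cells expressing OPRM1 and beta-arrestin as split beta-galactosidase partners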
Mu-type opioid receptor, sequence (P35372 whole entry): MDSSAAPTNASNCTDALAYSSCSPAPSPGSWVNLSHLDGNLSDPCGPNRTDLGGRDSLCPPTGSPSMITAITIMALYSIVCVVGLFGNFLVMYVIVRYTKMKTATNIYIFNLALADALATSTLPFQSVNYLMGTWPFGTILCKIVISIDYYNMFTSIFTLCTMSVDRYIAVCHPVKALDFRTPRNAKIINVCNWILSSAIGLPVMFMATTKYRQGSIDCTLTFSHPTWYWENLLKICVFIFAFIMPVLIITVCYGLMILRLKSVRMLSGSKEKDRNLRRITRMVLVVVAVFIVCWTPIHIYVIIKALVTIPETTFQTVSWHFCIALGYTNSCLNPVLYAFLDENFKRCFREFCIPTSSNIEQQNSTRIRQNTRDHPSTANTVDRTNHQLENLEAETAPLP

HeLa = assay: ATP-based viability loss in HeLa cells – cell-based, CellTiter-Glo luminescence, cherry-pick samples, cytotoxicity control for MITF activator project, dose response (AID 540259); type: functional; conditions: Homo sapiens
[10] = Luminescence Cell-Based Dose Confirmation HTS to Identify Activators of 5'UTR Stem-Loop Driven Alpha-Synuclein mRNA Translation in H4 Neuroglioblastoma Cells. [Related pubchem assays: 1829 (Project Summary), 1814 (Primary HTS)]; type: functional
H4 = assay: Luminescence Cell-Based Dose Response HTS to Identify Activators of 5'UTR Stem-Loop Driven Prion Protein mRNA Translation in H4 Neuroglioblastoma Cells. [Related pubchem assays: 1829 (Project Summary), 1814 (Primary HTS)]; type: functional; conditions: Homo sapiens
[11] = Luminescence Cell-Based Dose Response HTS to Identify Activators of Luciferase Translation or Activity in H4 […] Cells. [Related pubchem assays: 1829 (Project Summary), 1814 (Primary HTS)]; type: functional
[12] = biological target: T3, Sentrin-specific protease 1 (Homo sapiens, UniProt Q9P0U3); assay: SENP1 catalytic domain blockers, concentration series – biochemical, kinetic FRET, dose response (AID 651697); type: functional; conditions: read-out: IC50_Mean
T3 sequence (Q9P0U3 whole entry): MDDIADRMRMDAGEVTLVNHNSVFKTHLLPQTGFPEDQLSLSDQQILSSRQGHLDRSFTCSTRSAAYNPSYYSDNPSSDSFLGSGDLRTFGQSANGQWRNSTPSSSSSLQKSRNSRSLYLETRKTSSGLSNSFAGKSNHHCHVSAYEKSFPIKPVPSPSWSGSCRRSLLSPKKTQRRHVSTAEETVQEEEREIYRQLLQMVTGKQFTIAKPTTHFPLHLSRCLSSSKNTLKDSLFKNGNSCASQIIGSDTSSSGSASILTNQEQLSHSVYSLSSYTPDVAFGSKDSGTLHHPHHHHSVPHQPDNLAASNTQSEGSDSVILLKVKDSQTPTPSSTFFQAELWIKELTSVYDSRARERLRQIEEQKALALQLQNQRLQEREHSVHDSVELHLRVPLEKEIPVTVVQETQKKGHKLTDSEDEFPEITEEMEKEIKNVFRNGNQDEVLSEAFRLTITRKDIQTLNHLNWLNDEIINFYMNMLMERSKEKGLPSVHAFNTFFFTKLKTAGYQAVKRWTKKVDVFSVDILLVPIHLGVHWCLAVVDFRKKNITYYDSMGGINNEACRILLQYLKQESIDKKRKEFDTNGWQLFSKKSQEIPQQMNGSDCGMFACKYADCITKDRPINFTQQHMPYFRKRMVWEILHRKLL

[13] = biological target: T3, Sentrin-specific protease 1; assay: Dose response confirmation of small molecule inhibitors of the catalytic domain of the SUMO protease, SENP1 in a FRET assay.; type: functional; conditions: read-out: IC50_Mean
Beta Lactamase [14] = biological target: T1, Beta Lactamase; assay: BLA reporter interference, concentration series – BLA reporter cells, FRET fluorescence, artefact control for TLR9-MyD88 binding inhibitor project, dose response (AID 588341); type: cell-based;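 also: cell based assay in CHO-K1 cells stably expressing beta-lactamase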
CHO = CHO cell viability loss, potency – luminescence, cytotoxicity control for TLR9-MyD88 binding inhibitor project, dose response (AID 588339); type: functional, cell-based, hamster; conditions: Cricetulus griseus;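 also: CHO cells stably coexpressing TLR9 and MyD88 fusions from primary screen; compound exposure lasted 48 hours before viability readout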
INS1 = assay: INS-1E survival protection against cytokine death – cell-based, luminescence, retest, dose response (AID 449756); type: functional; conditions: Rattus norvegicus;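 also: cell death triggered by IL-1 beta plus TNF-alpha plus IFN-gamma mixture; protective hits raise ATP signal compared with cytokine alone wells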
[15] = biological target: T4, Latent membrane protein 1 (Human herpesvirus 4 (strain B95-8), UniProt P03230); assay: LMP1 TES1 pathway selectivity over dsRED control – imaging, HEK293T, dual-color eGFP/dsRED, cherry-picks, selectivity assay for LMP1 NF-kB inhibitor project, dose response (AID 588398); type: functional, cell-based
T4 sequence (P03230 whole entry): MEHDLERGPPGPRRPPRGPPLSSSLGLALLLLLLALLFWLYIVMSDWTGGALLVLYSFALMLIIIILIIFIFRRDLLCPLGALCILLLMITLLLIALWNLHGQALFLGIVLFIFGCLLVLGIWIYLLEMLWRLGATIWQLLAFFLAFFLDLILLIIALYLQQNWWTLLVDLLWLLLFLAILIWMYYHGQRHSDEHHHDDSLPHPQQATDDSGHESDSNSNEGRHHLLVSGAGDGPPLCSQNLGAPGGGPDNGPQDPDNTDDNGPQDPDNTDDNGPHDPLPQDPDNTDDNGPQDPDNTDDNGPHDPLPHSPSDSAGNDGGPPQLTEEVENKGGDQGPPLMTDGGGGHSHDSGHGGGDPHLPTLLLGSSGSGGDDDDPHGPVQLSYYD

For `COc1ccc(OC)c2sc(N(CCCN(C)C)C(=O)CCS(=O)(=O)c3ccccc3)nc12`, the IC50 [1] was 2.06 µM (active), the EC50 [2] was 4.32 µM (active) and the IC50 (Beta Lactamase [3]) was 32.1 µM (inactive). The EC50 [4] was 6.44 µM (active) and the AC50 (Paired box protein Pax-8) was 4.77 µM (active).
In the case of `Cc1nnc(SCc2nc3scc(-c4ccccc4)c3c(=O)[nH]2)s1`, the IC50 [5] was 98.6 µM (active), the IC50 [6] was > 100 µM (inactive) and the IC50 (Prothrombin) was 85.3 µM (active).
For `O=C(COc1ccc2c3c(c(=O)oc2c1)CCCC3)NCc1ccncc1`, the AC50 (Escherichia coli) was 38.2 µM (active).
In the case of `Cc1cc(Cl)ccc1OCC(=O)N[C@@H](Cc1ccccc1)c1nc2ccccc2[nH]1`, the IC50 [7] was 21.5 µM (active), the EC50 [8] was > 92.5 µM (inactive) and the EC50 [9] was > 92.5 µM (inactive). The EC50 (Mu-type opioid receptor) was > 92.5 µM (inactive).
With `Cc1ccc(-n2nnc(-c3ccnc4ccccc34)n2)cc1` the AC50 (HeLa) was 45.4 µM (active), the EC50 [10] was 0.371 µM (active) and the EC50 (H4) was 14.5 µM (active). For the same compound, the EC50 [11] was 0.745 µM (active).
With `COc1ccc(N2C(=O)C3C(C2=O)C(C(=O)c2ccccc2)N2CCCC32)cc1` (stereo unspecified) the IC50 [12] was 31 µM (inactive) and the IC50 [13] was 11 µM (active).
In the case of `CC(=O)N1CCc2cc(NN=C3C(=O)CCCC3=O)ccc21`, the IC50 [5] was 30.2 µM (active), the IC50 [6] was > 100 µM (inactive) and the IC50 (Prothrombin) was 43.2 µM (active).
For `CC(C)CNC(=O)COC(=O)c1c2c(nc3ccccc13)/C(=C/c1cccs1)CC2`, the IC50 (Beta Lactamase [14]) was 3.52 µM (active), the IC50 (CHO) was > 49.7 µM (inactive) and the AC50 (INS1) was 43.8 µM (active).
For `Cc1ccc(OCCn2cc(C(=S)N3CCCC3)c3ccccc32)cc1C`, the AC50 [15] was 72.9 µM (active).

Source: ChEMBL document CHEMBL1201862, “PubChem BioAssay data set” (2004)
